Data as given in US12673946B2, “Pyrimidin-4(3H)-one derivatives as TRPV4 antagonists” (RaQualia Pharma Inc., priority 2020, dated 2026).

Target: T1, human TRPV4 (Homo sapiens, UniProt Q9HBA0)
T1 construct: host or cells: tetracycline-inducible Flp-In T-REx 293 cells
Assay: Hypotonicity-induced Ca2+ influx (Fluo-4, FDSS)
Type: cell-based
Procedure, shortened: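 Flp-In T-REx 293 cells with tetracycline-induced human TRPV4, loaded with Fluo-4 for 60 min at 25 °C. Compound added 5 min before hypotonic mannitol/CaCl2 solution. Ca2+ signal recorded for 4.5 min on FDSS.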

[1] = Flp-In T-REx 293 cells expressing human TRPV4, examples listed under heading 'Human IC50<50 nM'
[2] = Flp-In T-REx 293 cells stably expressing human TRPV4, compounds listed by potency bin (<10 nM Tables 96-1/96-2, <3 nM Table 97)

T1 sequence (Q9HBA0 whole entry): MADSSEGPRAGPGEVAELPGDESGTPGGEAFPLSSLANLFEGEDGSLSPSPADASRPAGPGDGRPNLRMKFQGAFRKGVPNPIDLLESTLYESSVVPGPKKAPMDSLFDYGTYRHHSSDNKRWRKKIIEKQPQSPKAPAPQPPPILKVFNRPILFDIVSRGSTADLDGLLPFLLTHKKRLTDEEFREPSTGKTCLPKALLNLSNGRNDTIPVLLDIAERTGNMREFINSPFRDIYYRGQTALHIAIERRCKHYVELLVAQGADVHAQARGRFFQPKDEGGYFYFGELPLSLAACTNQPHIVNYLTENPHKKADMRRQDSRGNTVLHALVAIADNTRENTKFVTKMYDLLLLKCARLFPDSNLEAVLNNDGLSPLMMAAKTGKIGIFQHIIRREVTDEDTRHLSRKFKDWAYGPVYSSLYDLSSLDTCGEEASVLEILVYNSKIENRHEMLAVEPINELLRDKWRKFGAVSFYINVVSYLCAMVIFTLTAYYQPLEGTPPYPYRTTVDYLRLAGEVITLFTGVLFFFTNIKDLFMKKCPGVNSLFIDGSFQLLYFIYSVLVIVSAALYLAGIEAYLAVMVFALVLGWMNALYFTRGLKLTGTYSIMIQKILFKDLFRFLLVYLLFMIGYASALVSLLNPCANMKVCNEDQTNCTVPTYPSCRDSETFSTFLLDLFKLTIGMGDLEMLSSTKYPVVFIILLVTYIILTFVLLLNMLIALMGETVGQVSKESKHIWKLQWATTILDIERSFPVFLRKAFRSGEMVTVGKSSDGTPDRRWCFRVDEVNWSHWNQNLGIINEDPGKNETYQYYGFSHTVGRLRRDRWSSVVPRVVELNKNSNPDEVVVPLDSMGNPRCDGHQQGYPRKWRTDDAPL

Row | IC50 [1] [nM] | IC50 [2] [nM] | Structure (SMILES)
1 | < 50 | < 10 | CC(C)(C)c1cccc(-c2cccc(C(F)(F)C(=O)N3CCCc4nc(C5(c6ccccc6)CC5)[nH]c(=O)c4C3)c2)c1 [58-2]
2 | < 50 |  | Cc1csc(C2(c3nc4c(c(=O)[nH]3)CN(C(=O)[C@H](O)c3cccc(Cl)c3)CC4)CC2)c1 [6-20]
3 | < 50 | < 10 | CC(C)c1cccc(C2(c3nc4c(c(=O)[nH]3)CN(C(=O)[C@H](O)c3cccc(Cl)c3)CC4)CC2)c1 [14-13]
4 | < 50 |  | O=C(Cc1cccc(-c2cccc(Cl)c2)c1)N1CCc2nc(C3(c4cccc(Cl)c4)CC3)[nH]c(=O)c2C1 [14-114]
5 | < 50 | < 10 | O=C([C@H](O)c1cccc(-c2cc(Cl)cc(OC(F)(F)F)c2)c1)N1CCc2nc(C3(c4cccc(Cl)c4)CC3)[nH]c(=O)c2C1 [45-11]
6 | < 50 |  | O=C(Cc1ccccc1-c1ccccc1)N1CCCc2nc(C3(c4cccc(Cl)c4)CC3)[nH]c(=O)c2C1 [17-80]
7 | < 50 |  | CC(C)c1cccc(C(O)C(=O)N2CCc3nc(C4(c5cccc(F)c5)CC4)[nH]c(=O)c3C2)c1 (centres unmarked) [14-32]
8 | < 50 | < 10 | O=C([C@H](O)c1cccc(-c2cccc(Cl)c2)c1)N1CCc2nc(C3(c4cccc(Cl)c4)CC3)[nH]c(=O)c2C1 [45-8]
9 | < 50 | < 3 | CC(C)c1csc(C2(c3nc4c(c(=O)[nH]3)CN(C(=O)[C@H](O)c3cccc(C(F)(F)F)c3)CC4)CC2)c1 [15-2]
10 | < 50 | < 10 | O=C([C@H](O)c1cccc(C(F)(F)F)c1)N1CCCc2nc(C3(c4cccc(-c5cncs5)c4)CC3)[nH]c(=O)c2C1 [42-25]
11 | < 50 | < 10 | CC(C)c1cncc(C2(c3nc4c(c(=O)[nH]3)CN(C(=O)[C@H](O)c3cccc(-c5cccc(OC(F)(F)F)c5)c3)CCC4)CC2)c1 [55-4]
12 | < 50 | < 3 | O=C(NC1CCCCC1)N1CC=C(c2cccc(C3(c4nc5c(c(=O)[nH]4)CN(C(=O)[C@H](O)c4cccc(C(F)(F)F)c4)CCC5)CC3)c2)CC1 [42-84]
13 | < 50 | < 3 | CCc1csc(C2(c3nc4c(c(=O)[nH]3)CN(C(=O)[C@H](O)c3cccc(C(F)(F)F)c3)CCC4)CC2)c1 [30-2]
14 | < 50 | < 10 | O=C([C@H](O)c1cccc(C(F)(F)F)c1)N1CCCc2nc(C3(c4cccc(C5=CCN(S(=O)(=O)c6ccc(F)cc6)CC5)c4)CC3)[nH]c(=O)c2C1 [42-75]
15 | < 50 |  | O=C(C(O)c1cccc(-c2cc(F)ccc2F)c1)N1CCc2nc(C3(c4ccccc4)CC3)[nH]c(=O)c2C1 (centres unmarked) [44-48]
16 | < 50 | < 10 | O=C([C@H](O)c1cccc(Cl)c1)N1CCc2nc(C3(c4cccc(-c5ccccc5)c4)CC3)[nH]c(=O)c2C1 [14-10]
17 | < 50 |  | CC(C)(C)c1cccc(C(O)C(=O)N2CCc3nc(C4(c5cccc(F)c5)CC4)[nH]c(=O)c3C2)c1 (centres unmarked) [14-22]
18 | < 50 |  | Cc1cc(F)cc(-c2cccc(C(O)C(=O)N3CCc4nc(C5(c6ccccc6)CC5)[nH]c(=O)c4C3)c2)c1 (centres unmarked) [44-35]
19 | < 50 | < 3 | N#Cc1cccc(-c2cccc(C3(c4nc5c(c(=O)[nH]4)CN(C(=O)[C@H](O)c4cccc(C(F)(F)F)c4)CCC5)CC3)c2)c1 [42-5]

Row | IC50 [1] [nM] | IC50 [2] [nM] | Structure (SMILES)
20 | < 50 | < 10 | O=C(Cc1cccc(-c2cc(F)cc(Cl)c2)c1)N1CCCc2nc(C3(c4cccc(Cl)c4)CC3)[nH]c(=O)c2C1 [57-9]
21 | < 50 | < 3 | O=C([C@H](O)c1cccc(-c2ccc(OC(F)(F)F)cc2)c1)N1CCCc2nc(C3(c4ccccc4)CC3)[nH]c(=O)c2C1 [49-33]
22 | < 50 |  | O=C(C(O)c1cccc(C(F)(F)F)c1F)N1CCc2nc(C3(c4cccs4)CC3)[nH]c(=O)c2C1 (centres unmarked) [15-16]
23 | < 50 | < 10 | Cn1cc(-c2cccc(C3(c4nc5c(c(=O)[nH]4)CN(C(=O)[C@H](O)c4cccc(C(F)(F)F)c4)CCC5)CC3)c2)cn1 [42-27]
24 | < 50 | < 10 | O=C(Cc1ccccc1)N1CCN(c2ccc(-c3cccc(C4(c5nc6c(c(=O)[nH]5)CN(C(=O)[C@H](O)c5cccc(C(F)(F)F)c5)CCC6)CC4)c3)cn2)CC1 [42-86]
25 | < 50 |  | O=C(C(O)c1cccc(Br)c1)N1CCCc2nc(C3(c4ccccc4)CC3)[nH]c(=O)c2C1 (centres unmarked) [17-55]
26 | < 50 | < 10 | CC(C)(C)c1cccc(-c2cccc([C@@H](O)C(=O)N3CCCc4nc(C5(c6cc(C7CCCCC7)cs6)CC5)[nH]c(=O)c4C3)c2)c1 [54-7]
27 | < 50 | < 10 | CC(C)c1cccc(C2(c3nc4c(c(=O)[nH]3)CN(C(=O)Cc3cccc(-c5cccc(Cl)c5)c3)CCC4)CC2)c1 [31-15]
28 | < 50 | < 10 | O=C([C@H](O)c1cccc(F)c1F)N1CCCc2nc(C3(c4cccc(Cl)c4)CC3)[nH]c(=O)c2C1 [17-35]
29 | < 50 | < 10 | O=C([C@H](O)c1cccc(Cl)c1)N1CCCc2nc(C3(c4cccc(-c5cccnc5)c4)CC3)[nH]c(=O)c2C1 [40-3]
30 | < 50 | < 10 | O=C(C(O)c1cccc(-c2ccc(F)c(Cl)c2)c1)N1CCc2nc(C3(c4ccccc4)CC3)[nH]c(=O)c2C1 (centres unmarked) [44-14]
31 | < 50 | < 10 | CC(C)c1cccc(-c2cccc([C@@H](O)C(=O)N3CCCc4nc(C5(c6cccc(-c7csc8ccccc78)c6)CC5)[nH]c(=O)c4C3)c2)c1 [52-13]
32 | < 50 | < 10 | O=C([C@H](O)c1cccc(Cl)c1)N1CCCc2nc(C3(c4cc(C5CCOCC5)cs4)CC3)[nH]c(=O)c2C1 [18-25]
33 | < 50 | < 3 | N#Cc1cc(Cl)cc(-c2cccc([C@@H](O)C(=O)N3CCc4nc(C5(c6cccc(Cl)c6)CC5)[nH]c(=O)c4C3)c2)c1 [45-5]
34 | < 50 | < 10 | CC(C)c1cccc(C2(c3nc4c(c(=O)[nH]3)CN(C(=O)[C@H](O)c3cccc(Cl)c3)CCC4)CC2)c1 [29-1]
35 | < 50 | < 10 | O=C([C@H](O)c1cccc(C(F)(F)F)c1)N1CCCc2nc(C3(c4cccc(-c5cnc(-c6ccccc6)o5)c4)CC3)[nH]c(=O)c2C1 [17-95]
36 | < 50 | < 3 | O=C([C@H](O)c1cccc(-c2cccc(OC(F)(F)F)c2)c1)N1CCCc2nc(C3(c4ccccc4)CC3)[nH]c(=O)c2C1 [49-14]
37 | < 50 | < 10 | CC(C)c1cccc(C2(c3nc4c(c(=O)[nH]3)CN(C(=O)Cc3cccc(-c5cccc(C(F)(F)F)c5)c3)CC4)CC2)c1 [27-6]
38 | < 50 |  | O=C(N1CCc2nc(C3(c4cccc(Cl)c4)CC3)[nH]c(=O)c2C1)C(F)(F)c1cccc(C(F)(F)F)c1 [20-10]

Row | IC50 [1] [nM] | IC50 [2] [nM] | Structure (SMILES)
39 | < 50 |  | O=C(Cc1cccc(-c2coc3ccccc23)c1)N1CCc2nc(C3(c4cccc(Cl)c4)CC3)[nH]c(=O)c2C1 [14-120]
40 | < 50 | < 3 | Cn1ncc2cc(-c3cccc(C4(c5nc6c(c(=O)[nH]5)CN(C(=O)[C@H](O)c5cccc(Cl)c5)CCC6)CC4)c3)ccc21 [40-12]
41 | < 50 |  | O=C([C@H](O)c1cccc(C(F)(F)F)c1)N1CCc2nc(C3(c4cccc(F)c4)CC3)[nH]c(=O)c2C1 [3-73]
42 | < 50 | < 10 | CN(C)C(=O)c1cccc(-c2cccc(C3(c4nc5c(c(=O)[nH]4)CN(C(=O)[C@H](O)c4cccc(C(F)(F)F)c4)CCC5)CC3)c2)c1 [42-31]
43 | < 50 | < 10 | O=C([C@H](O)c1cccc(C(F)(F)F)c1)N1CCc2nc(C3(c4cc(Br)cs4)CC3)[nH]c(=O)c2C1 [15-9]
44 | < 50 | < 10 | O=C([C@H](O)c1cccc(C(F)(F)F)c1)N1CCCc2nc(C3(c4cccc(-c5ccc(C6(O)CCOCC6)cc5)c4)CC3)[nH]c(=O)c2C1 [42-22]
45 | < 50 |  | O=C([C@H](O)c1cccc(Cl)c1)N1CCc2nc(C3(c4cccc(F)c4)CC3)[nH]c(=O)c2C1 [3-31]
46 | < 50 | < 10 | O=C(C(O)c1cccc(-c2cccc(OCc3ccccc3)c2)c1)N1CCc2nc(C3(c4ccccc4)CC3)[nH]c(=O)c2C1 (centres unmarked) [44-119]
47 | < 50 | < 10 | O=C(Cc1cccc(-c2cccc(F)c2)c1)N1CCCc2nc(C3(c4ccccc4)CC3)[nH]c(=O)c2C1 [57-1]
48 | < 50 | < 10 | O=C(N1CCCc2nc(C3(c4ccccc4)CC3)[nH]c(=O)c2C1)C(F)(F)c1cccc(-c2cccc(OC(F)(F)F)c2)c1 [58-5]
49 | < 50 |  | O=C(C(O)c1cccc(-c2cccc(C(F)(F)F)c2Cl)c1)N1CCc2nc(C3(c4ccccc4)CC3)[nH]c(=O)c2C1 (centres unmarked) [44-46]
50 | < 50 | < 10 | O=C(N1CCc2nc(C3(c4cncc(-c5ccccc5)c4)CC3)[nH]c(=O)c2C1)C(F)(F)c1cccc(C(F)(F)F)c1 [22-6]
51 | < 50 | < 10 | O=C([C@H](O)c1cccc(Cl)c1)N1CCCc2nc(C3(c4cc(-c5cnsc5)cs4)CC3)[nH]c(=O)c2C1 [39-2]
52 | < 50 | < 3 | CN(C)c1ccc(-c2cccc(C3(c4nc5c(c(=O)[nH]4)CN(C(=O)[C@H](O)c4cccc(C(F)(F)F)c4)CCC5)CC3)c2)cn1 [42-13]
53 | < 50 |  | CC(C)c1cccc(-c2cccc([C@@H](O)C(=O)N3CCCc4c(nc(C5(c6ccccc6)CC5)[nH]c4=O)C3)c2)c1 [49-57]
54 | < 50 |  | CC(C)c1cccc(C2(c3nc4c(c(=O)[nH]3)CN(C(=O)C(F)(F)c3cccc(Cl)c3)CC4)CC2)c1 [20-14]
55 | < 50 | < 10 | O=C([C@H](O)c1cccc(C(F)(F)F)c1)N1CCc2nc(C3(c4cccc(C5CCCC5)c4)CC3)[nH]c(=O)c2C1 [27-2]
56 | < 50 | < 10 | O=C(c1csc(C2(c3nc4c(c(=O)[nH]3)CN(C(=O)[C@H](O)c3cccc(C(F)(F)F)c3)CCC4)CC2)c1)N(Cc1ccccc1)Cc1ccccc1 [59-12]
57 | < 50 | < 3 | O=C([C@H](O)c1cccc(-c2cccc(OC(F)(F)F)c2)c1)N1CCCc2nc(C3(c4cccs4)CC3)[nH]c(=O)c2C1 [53-2]
